What was measured:
rat TRPA1 [1] = target: T1, rat TRPA1 (Rattus norvegicus, UniProt Q6RI86); test: Calcium influx (Fluo-4 fluorimetric) agonist assay in HEK293 cells transfected with rTRPA1; assay type: cell-based; details: for EC50: half-maximal increase in [Ca2+]i, read-out: Potency EC50; for Efficacy: maximum [Ca2+]i elevation as % of allylisothiocyanate (AITC) at 100 μM
T1 construct: expressed in transfected cells
Description: (§1) HEK-293 cells stably over-expressing recombinant rat TRPA1, TRPM8, TRPV2-4, TRPM8 or human TRPV1 were selected by Geneticin 600 μg mL^−1, grown on 100-mm diameter Petri dishes as monolayers in minimum essential medium supplemented with non-essential amino acids, 10% fetal bovine serum, and 2 mM glutamine, and maintained under 5% CO2 at 37 °C. Stable expression of each channel was checked by quantitative real time-PCR. The effect of the substances on intracellular Ca^2+ concentration [Ca^2+]i was determined using Fluo-4, a selective intracellular fluorescent probe for Ca^2+. Toward this aim, on the day of the experiment, cells over-expressing the TRP channels were loaded for 1 h in the dark at room temperature with the methyl ester Fluo4-AM (4 μM in DMSO containing 0.02% Pluronic F-127, Invitrogen, Carlsbad, CA, USA) in minimum essential medium without fetal bovine serum. After the loading, cells were washed twice in Tyrode’s buffer (145 mM NaCl, 2.5 mM KCl, 1.5 mM CaCl2, 1.2 mM MgCl2, 10 mM D-glucose, and 10 mM HEPES, pH 7.4), re-suspended in Tyrode’s buffer, and transferred (about 100,000 cells) to the quartz cuvette of the spectrofluorimeter (Perkin-Elmer LS50B; PerkinElmer Life and Analytical Sciences, Waltham, MA, USA) under continuous stirring. [Ca^2+]i was determined before and after the addition of various concentrations of test compounds by measuring cell fluorescence at 25 °C (λEX = 488 nm, λEM = 516 nm). Curve fitting (sigmoidal dose-response variable slope) and parameter estimation were performed with GraphPad Prism® (GraphPad Software Inc., San Diego, CA, USA). Potency was expressed as the concentration of test substances exerting a half-maximal agonist effect (i.e., half-maximal increases in [Ca^2+]i (EC50), calculated by using GraphPad®. The efficacy of the agonists was first determined by normalizing their effect to the maximum Ca^2+ influx effect on [Ca^2+]i observed with application of 4 μM ionomycin (Sigma, St. Louis, MO, USA). The increases in fluorescence in wild-type HEK293 cells (i.e., not transfected with any construct) were used as baseline and subtracted from the values obtained from transfected cells. The effects of TRPA1 agonists are expressed as a percentage of the effect obtained with 100 μM allyl isothiocyanate (AITC). Antagonist/desensitizing behavior was evaluated for TRPA1 by adding the test compounds in the quartz cuvette 5 min before stimulation of cells with the agonist AITC (100 μM). Data are expressed as the concentration exerting a half maximal inhibition of agonist-induced [Ca^2+]i elevation (IC50), which was calculated again using GraphPad Prism® software. The effect on [Ca^2+]i exerted by agonist alone was taken as 100%. Dose-response curves were fitted by a sigmoidal regression with variable slope. All determinations were at least performed in triplicate. Statistical analysis of the data was performed by analysis of variance at each point using ANOVA followed by Bonferroni’s test.

rat TRPA1 [2] = target: T1, rat TRPA1; test: Antagonist/desensitizing assay: inhibition of AITC (100 μM)-induced [Ca2+]i elevation in rTRPA1-HEK293 cells; assay type: cell-based; details: compound added 5 min before stimulation with AITC 100 μM; HEK293 cells transfected with rTRPA1; read-out: IC50 inh TRPA1 (AITC 100 μM)
Description: as §1, with “Potency was expressed as the concentration of test substances exerting a half-maximal agonist effect (i.e., half-maximal increases in [Ca^2+]i (EC50), calculated by using GraphPad®. The efficacy of the agonists was first determined by normalizing their effect to the maximum Ca^2+ influx effect on [Ca^2+]i observed with application of 4 μM ionomycin (Sigma, St. Louis, MO, USA). The increases in fluorescence in wild-type HEK293 cells (i.e., not transfected with any construct) were used as baseline and subtracted from the values obtained from transfected cells. The effects of TRPA1 agonists are expressed as a percentage of the effect obtained with 100 μM allyl isothiocyanate (AITC).” left out, “The effect on [Ca^2+]i exerted by agonist alone was taken as 100%. Dose-response curves were fitted by a sigmoidal regression with variable slope. All determinations were at least performed in triplicate. Statistical analysis of the data was performed by analysis of variance at each point using ANOVA followed by Bonferroni’s test.” left out

T1 sequence (Q6RI86 whole entry): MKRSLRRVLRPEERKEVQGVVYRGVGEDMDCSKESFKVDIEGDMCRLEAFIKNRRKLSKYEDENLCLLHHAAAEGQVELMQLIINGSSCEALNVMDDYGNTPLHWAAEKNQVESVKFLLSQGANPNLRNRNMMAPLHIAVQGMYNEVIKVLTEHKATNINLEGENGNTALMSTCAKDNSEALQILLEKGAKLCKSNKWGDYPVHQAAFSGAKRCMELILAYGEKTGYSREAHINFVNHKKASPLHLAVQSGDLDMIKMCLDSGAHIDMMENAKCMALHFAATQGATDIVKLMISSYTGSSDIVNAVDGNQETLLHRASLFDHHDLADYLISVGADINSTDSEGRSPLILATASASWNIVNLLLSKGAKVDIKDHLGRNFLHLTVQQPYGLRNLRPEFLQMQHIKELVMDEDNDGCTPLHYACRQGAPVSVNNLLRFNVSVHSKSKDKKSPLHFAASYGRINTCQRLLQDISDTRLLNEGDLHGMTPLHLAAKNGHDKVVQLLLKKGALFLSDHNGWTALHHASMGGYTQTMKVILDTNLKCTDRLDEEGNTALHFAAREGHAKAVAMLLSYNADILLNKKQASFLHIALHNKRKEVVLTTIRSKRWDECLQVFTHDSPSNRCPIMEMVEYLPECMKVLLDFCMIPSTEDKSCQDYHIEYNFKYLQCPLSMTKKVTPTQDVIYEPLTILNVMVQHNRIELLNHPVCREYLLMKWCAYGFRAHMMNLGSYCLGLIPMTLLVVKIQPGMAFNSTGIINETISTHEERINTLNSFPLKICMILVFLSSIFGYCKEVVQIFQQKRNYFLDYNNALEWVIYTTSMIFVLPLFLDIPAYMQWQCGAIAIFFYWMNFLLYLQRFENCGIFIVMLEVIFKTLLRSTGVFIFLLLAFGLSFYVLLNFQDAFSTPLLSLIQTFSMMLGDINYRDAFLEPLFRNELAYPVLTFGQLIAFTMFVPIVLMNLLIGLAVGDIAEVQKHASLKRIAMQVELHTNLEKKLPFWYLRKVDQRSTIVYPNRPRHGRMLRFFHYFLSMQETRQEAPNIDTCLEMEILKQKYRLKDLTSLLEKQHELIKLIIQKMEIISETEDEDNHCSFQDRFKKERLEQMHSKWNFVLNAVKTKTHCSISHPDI

In the case of `CC#CC#CC#CCCc1cccc(=O)o1` [Echinophorin D (3), echinophorin D], the EC50 (rat TRPA1 [1]) is reported as 30.9 ± 2.8 µM, the Efficacy (rat TRPA1 [1]) is reported as 51.7 ± 1.3 % AITC and the Efficacy (rat TRPA1 [1]; listed as 3) is reported as “about 52 % AITC”. It also gave an IC50 (rat TRPA1 [2]) of 87 ± 1.5 µM.

`C/C=C\C#CC#CCCc1cccc(=O)o1` [Echinophorin B (4), echinophorin B] was tested, and the EC50 (rat TRPA1 [1]) was 25 ± 3 µM, the Efficacy (rat TRPA1 [1]) was 82.0 ± 2.8 % AITC and the Efficacy (rat TRPA1 [1]; listed as 4) was “about 80 % AITC”. The IC50 (rat TRPA1 [2]) was 37.2 ± 0.8 µM.

For `CCCC#CC#CCCc1cccc(=O)o1` [Echinophorin A (5), echinophorin A], the EC50 (rat TRPA1 [1]) was 20.3 ± 3.2 µM, the Efficacy (rat TRPA1 [1]) was 81.0 ± 3.3 % AITC and the Efficacy (rat TRPA1 [1]; listed as 5) was “about 80 % AITC”. It also gave an IC50 (rat TRPA1 [2]) of 45.7 ± 3.5 µM.

Reference: paper PMC6099690, “TRPA1 Modulating C14 Polyacetylenes from the Iranian Endemic Plant Echinophora platyloba” (Molecules : A Journal of Synthetic Chemistry and Natural …, 2018)
